According to article PMC3411462, “Long-acting κ opioid antagonists nor-BNI, GNTI and JDTic: pharmacokinetics in mice and lipophilicity” (BMC Pharmacology, 2012):
Where “and” joins values, the source holds several entries; their conditions need not be identical. Identical values can stand only once. Like-named read-outs stand apart in the source and are kept apart here. Marks after values point to notes of the source that are not given here.

Experiment: Brain and plasma concentrations in mice after intraperitoneal administration (LC-MS-MS), non-compartmental analysis
Format: in vivo
Settings: for [drug],brain (free base equivalent) / [drug],plasma (free base equivalent): listed as JDTic.2HCl.H2O
[1] = 0.5 h, 10 mg/kg i.p., individual mice, 10 mg/kg
[2] = 1 h, 10 mg/kg i.p., individual mice, 10 mg/kg
[3] = 2 h, 10 mg/kg i.p., individual mice, 10 mg/kg
[4] = 4 h, 10 mg/kg i.p., individual mice, 10 mg/kg
[5] = 24 h, 10 mg/kg i.p., individual mice, 10 mg/kg

Compound: CC(C)[C@@H](CN1CC[C@@](C)(c2cccc(O)c2)[C@@H](C)C1)NC(=O)[C@H]1Cc2ccc(O)cc2CN1 [JDTic, (3R)-7-Hydroxy-N-((1S)-1-{[(3R,4R)-4-(3-hydroxyphenyl)-3,4-dimethyl-1-piperidinyl]methyl}-2-methylpropyl)-1,2,3,4-tetrahydro-3-isoquinolinecarboxamide]
- Time of maximal mean plasma level (10 mg kg^-1 i.p., mice): approximately 30 minutes
- [drug],brain (free base equivalent) [1]: 66.3 ng/g and 60.3 ng/g and 155 ng/g and 37.5 ng/g and 49.5 ng/g and 57.9 ng/g
- [drug],plasma (free base equivalent) [1]: 263 ng/mL and 237 ng/mL and 330 ng/mL and 248 ng/mL and 145 ng/mL
- [drug],brain (free base equivalent) [2]: 61.5 ng/g and 45.3 ng/g and 38.1 ng/g and 116 ng/g and 49.2 ng/g and 56.7 ng/g
- [drug],plasma (free base equivalent) [2]: 152 ng/mL and 270 ng/mL and 114 ng/mL and 126 ng/mL and 130 ng/mL and 134 ng/mL
- [drug],brain (free base equivalent) [3]: 48.3 ng/g and 36.9 ng/g
- [drug],plasma (free base equivalent) [3]: 57.3 ng/mL and 71 ng/mL
- [drug],brain (free base equivalent) [4]: 80.4 ng/g and 46.2 ng/g
- [drug],plasma (free base equivalent) [4]: 69.6 ng/mL and 40.3 ng/mL and 30 ng/mL
- [drug],brain (free base equivalent) [5]: 30.3 ng/g and 32.1 ng/g
- [drug],plasma (free base equivalent) [5]: <4 ng/mL
- [drug],brain (free base equivalent) (48 h, 10 mg/kg i.p., individual mice, 10 mg/kg): 936* ng/g and 32.7 ng/g and 16.7 ng/g
- [drug],brain (free base equivalent) (168 h, 10 mg/kg i.p., individual mice, 10 mg/kg): <12 ng/g (2×) and 43.8 ng/g
- Peak unbound brain level (at 30 minutes, 10 mg kg^-1 i.p., estimate): up to 4 nM
- AUMC 0-inf_obs (brain NCA, 10 mg/kg i.p.): 3158084 ng/ml*h^2
- Tlag (brain NCA, 10 mg/kg i.p.): 0 h
- C max,brain (brain, 10 mg kg^-1 i.p., mice): 71 ng/mL
- Decline of mean plasma concentration from peak (by 24 hours, 10 mg kg^-1 i.p.): at least 98%
- concentration at 4 h (male, Swiss-Webster (Crl:CFW(SW)), mouse, brain, intraperitoneal, 10 mg/kg, 4 h, 10 mg/kg, read-out: Conc (brain, NCA input)): 62.4 ng/mL
- concentration at 24 h (male, Swiss-Webster (Crl:CFW(SW)), mouse, brain, intraperitoneal, 10 mg/kg, 24 h, 10 mg/kg, read-out: Conc (brain, NCA input)): 30.9 ng/mL
- concentration at 48 h (male, Swiss-Webster (Crl:CFW(SW)), mouse, brain, intraperitoneal, 10 mg/kg, 48 h, 10 mg/kg, read-out: Conc (brain, NCA input)): 24.7 ng/mL
- concentration at 168 h (male, Swiss-Webster (Crl:CFW(SW)), mouse, brain, intraperitoneal, 10 mg/kg, 168 h, 10 mg/kg, read-out: Conc (brain, NCA input)): 18.6 ng/mL
- concentration at 4 h (male, Swiss-Webster (Crl:CFW(SW)), mouse, brain, ip, 10 mg/kg, 4 h, 10 mg/kg i.p., individual mice, read-out: [drug],brain (free base equivalent)): 60.6 ng/g
- concentration at 4 h (male, Swiss-Webster (Crl:CFW(SW)), mouse, brain, ip, 10 mg/kg, 4 h, 10 mg/kg i.p., read-out: mean (brain)): 62.4 ng/g
- concentration at 24 h (male, Swiss-Webster (Crl:CFW(SW)), mouse, brain, ip, 10 mg/kg, 24 h, 10 mg/kg i.p., individual mice, read-out: [drug],brain (free base equivalent)): 30.3 ng/g
- concentration at 24 h (male, Swiss-Webster (Crl:CFW(SW)), mouse, brain, ip, 10 mg/kg, 24 h, 10 mg/kg i.p., read-out: mean (brain)): 30.9 ng/g
- concentration at 48 h (male, Swiss-Webster (Crl:CFW(SW)), mouse, brain, ip, 10 mg/kg, 48 h, 10 mg/kg i.p., outlier excluded, read-out: mean (brain)): 24.7 ng/g
- concentration at 168 h (male, Swiss-Webster (Crl:CFW(SW)), mouse, brain, ip, 10 mg/kg, 168 h, 10 mg/kg i.p., <MRC substituted by MRC/2, read-out: mean (brain)): 18.6 ng/g
- AUC(0-inf) (male, Swiss-Webster (Crl:CFW(SW)), mouse, brain, ip, 10 mg/kg, brain NCA, 10 mg/kg i.p., read-out: AUC 0-inf_obs): 10300 ng·h/mL
- Kp uu (male, Swiss-Webster (Crl:CFW(SW)), mouse, brain/plasma (unbound), ip, supplement, 10 mg/kg i.p., read-out: Kp,uu,brain (AUC0–∞,brain,u / AUC0–∞,p,u)): < 1.42
- Kp (male, Swiss-Webster (Crl:CFW(SW)), mouse, brain/plasma, ip, 10 mg/kg, supplement, 10 mg/kg i.p., read-out: Kp,brain (AUC0–∞,brain / AUC0–∞,p)): 11.6
- MRT inf (male, Swiss-Webster (Crl:CFW(SW)), mouse, ip, brain NCA, 10 mg/kg i.p., read-out: MRT 0-inf_obs): 307 h
- Kp uu (male, Swiss-Webster, mouse, brain and plasma (unbound), ip, 10 mg kg^-1, 10 mg kg^-1 i.p., mice, read-out: K p,uu,brain (AUC0–∞,brain,u/AUC0–∞,p,u)): ≤ 1.4
- Kp uu (male, Swiss-Webster, mouse, brain and plasma (unbound), ip, 10 mg/kg, 10 mg kg^-1 i.p., mice, read-out: Cmax,brain,u/Cmax,p,u): < 0.04
- Kp (male, Swiss-Webster, mouse, brain and plasma, ip, 10 mg kg^-1, 10 mg kg^-1 i.p., mice, read-out: K p,brain (AUC0–∞,brain/AUC0–∞,p)): 11.6
- Kp (male, Swiss-Webster, mouse, brain and plasma, ip, 10 mg/kg, 10 mg kg^-1 i.p., mice, read-out: Cmax,brain/Cmax,p): 0.29
- concentration at 0.5 h (male, Swiss-Webster, mouse, brain, intraperitoneal, 10 mg/kg, 0.5 h, 10 mg/kg, read-out: Conc (brain, NCA input)): 71.1 ng/mL
- concentration at 1 h (male, Swiss-Webster, mouse, brain, intraperitoneal, 10 mg/kg, 1 h, 10 mg/kg, read-out: Conc (brain, NCA input)): 61.1 ng/mL
- concentration at 2 h (male, Swiss-Webster, mouse, brain, intraperitoneal, 10 mg/kg, 2 h, 10 mg/kg, read-out: Conc (brain, NCA input)): 38.4 ng/mL
- half-life (male, Swiss-Webster, mouse, brain, ip, 10 mg/kg, 10 mg kg^-1 i.p., mice, read-out: Terminal half-life in brain (converted)): ~216 h
- concentration at 0.5 h (male, Swiss-Webster, mouse, brain, ip, 10 mg/kg, 0.5 h, 10 mg/kg i.p., read-out: mean (brain)): 71.1 ng/g
- concentration at 1 h (male, Swiss-Webster, mouse, brain, ip, 10 mg/kg, 1 h, 10 mg/kg i.p., read-out: mean (brain)): 61.1 ng/g
- concentration at 2 h (male, Swiss-Webster, mouse, brain, ip, 10 mg/kg, 2 h, 10 mg/kg i.p., individual mice, read-out: [drug],brain (free base equivalent)): 30 ng/g
- concentration at 2 h (male, Swiss-Webster, mouse, brain, ip, 10 mg/kg, 2 h, 10 mg/kg i.p., <MRC substituted by MRC/2, read-out: mean (brain)): 38.4 ng/g
- half-life (male, Swiss-Webster, mouse, brain, ip, 10 mg/kg, brain NCA, 10 mg/kg i.p., read-out: t1/2 (converted)): 220 h
